Laboratory results published in article PMC5816172 (Proceedings of the National Academy of Sciences of the …, 2018).

System: NLRP3 inflammasome
Assay: NLRP3 inflammasome stimulation of J774A.1 macrophages
Type: cell-based, mouse
Settings: J774A.1 (Fig. S7B), ACHP alone

N#Cc1c(C2CCNCC2)cc(-c2c(O)cccc2OCC2CC2)nc1N [ACHP, 2-Amino-6-[2-(cyclopropylmethoxy)-6-hydroxyphenyl]-4-(4-piperidinyl)-3-pyridinecarbonitrile, reference compound]
reduction of LPS/nigericin induction of IL-1β: 60%
